# In patent US20230120666A1, “EXCIPIENTS PROVIDING STABILIZATION AND ENHANCED WATER SOLUBILIZATION AND THEIR USES” (priority 2020, published 2023):
# Entries after “also recorded” stand apart in the source; their conditions may differ.
# Legend:
# [1] = Storage stability of 20 wt % SupraPlex formulations in sealed plastic vial at RT; format: physicochemical; settings: loaded in 20 wt % Run #65 in DI water, pH 2.5±0.5, sealed poly(propylene) vial, 12 months
# [2] = literature value, Modasiya et al. 2012; cited from earlier work
# [3] = CBD water solubility / solubility enhancement by UV-Visible spectrometry; format: physicochemical; settings: for solubility: thermodynamic from solid
# Description: The General Method used to determine the solubility of CBD is as follows:
# Water (1 mL) was added to one of the vials. […] A third vial was prepared with 100 mg of the agent, 1 mL of water, and no CBD for use as a background standard for correcting UV-visible spectra. All three vials were processed (ultrasound) together to minimize variations.
# CBD solubility was determined by UV-Visible spectrometry.
# Three methods were used for background subtraction: • 1. For agents with very little color, the CBD is seen as a peak on the side of a peak that can be readily measured by drawing a tangent line on the interfering peak to estimate a baseline. This is usable for pure samples, such as the commercial cyclodextrins. • 2. […] For strongly colored agents, small deviations in concentration can overwhelm the CBD signal. In these cases, the full spectra are measured and the standard is multiplied by a weighting factor before subtraction. The weighting factor is adjusted to give close to a zero absorbance at many wavelengths across the difference spectrum and the CBD spectrum is what remains.
# CBD concentration is calculated as the absorbance at 274 nm in excess of the retentate absorbance relative to the absorbance of the CBD standard. Abs means absorbance in Table 1.
# [4] = In vitro dissolution of Polymer Adducts and Hybrid Excipients; format: physicochemical; settings: 0.1 N HCl pH 1.2, SGF pH 1.2, PB pH 6.8, SIF pH 6.8; 37±0.5° C.
# Description: Simulated Gastric Fluid (SGF pH 1.2), Phosphate Buffer (PB pH 6.8) and Simulated Intestinal Fluid (SIF pH 6.8) as dissolution medium. […] At predetermined time intervals, 1 mL samples were withdrawn and replenished with the same volume of fresh medium. The RSV and CBD content in these samples were determined by using a UV-visible Spectrophotometer (U-3010, Hitachi, Japan) and specific amounts of RSV and CBD dissolved and were monitored and estimated as a function of time.
# This multiple, hybrid excipient was then lyophilized and used for dissolution studies.
# [5] = system: healthy male volunteers; experiment: In vivo human oral ingestion study of CBD-SupraPlex excipient; settings: for effects experienced within 15-30 min after ingestion: CBD-SupraPlex (Run #181) 35.6 μg/mL in DI water
# Description: A highly documented “in house” CBD-SupraPlex® human oral ingestion study was performed to further evaluate the SupraPlex® Excipients in humans. This study involved two healthy male volunteers: Subject #1 was […], 5′10″, 190 lbs., […] an experienced CBD/THC consumer, and Subject #2 was […], 5′6″, 160 lbs., a naïve, and a THC/CBD non consumer […]).
# The CBD-SupraPlex® excipient samples were prepared under sanitary, GLP conditions. All CBD dose concentrations were confirmed by standard HPLC protocols.
# The CBD-SupraPlex® excipient samples used for oral ingestion were administered sequentially in three, 10 mL ingestion portions as clear, transparent DI aqueous solutions. The 1st portion was ingested in a sublingual mode and last two portions were ingested by normal swallowing. The esthetic taste features of CBD-SupraPlex® excipient (pH2), in DI water were: sour, citrus-lemon, (80% lemon-10% salt taste), slight terpene, slippery film like texture, but with no after taste. When used in ginger ale, it gave a very pleasant taste. At pH4, the sourness is eliminated to give a pleasant slight lemon taste.
# Test 1: 10 mL containing 35.6 μg/mL of CBD in DI water, sublingual over 15 min. Test 2: 15 min. after Test 1, 10 mL/35.6 μg/mL of CBD in DI water, normal swallow over 15 min. Total CBD ingested=712 μg in 20 mL DI water over 30 min. Test 3: 15 min. after Test 2, repeat of Test 2 Total CBD ingested=1068 μg in 30 mL DI water over 45 min. Test 4: 2 days later, 40 mL/35.6 μg/mL of CBD in DI water, normal swallow before evening sleep. […] Subject #1 could rarely experience more than 4 hr. normal sleeper night, but after Test 4 they took a 35.6 μg/mL of CBD in 40 mL DI water, sublingual before sleep 2 days after Test 4. When taken before bedtime, about 1 mg CBD dose level gave an excellent, sustained 7-8 hr. sleep cycle with a rested, clear-headed wake-up, no fogginess or after effect.
# [6] = Koch et al. 2020, cited from earlier work
# [7] = CBD water solubility / solubility enhancement by UV-Visible spectrometry; format: physicochemical; settings: CBD 1 g in 100 mL water, Qsonica Q2000 1 hr at 100% amplitude, no excipient
# [8] = Excipient assisted resveratrol water solubility enhancement; format: physicochemical; settings: water with the Excipients of the invention (PHC), aqueous with cosolvent or surfactant or cyclodextrin, thermodynamic from solid
# [9] = literature value, Chauhan et al.; cited from earlier work
smiles,measurement,setting,value
COc1cc(/C=C/C(=O)CC(=O)/C=C/c2ccc(O)c(OC)c2)ccc1O [curcumin],solution depletion,[1],essentially no solution depletion
same,naked curcumin solubility in DI water,[2],2.67 µg/mL
"C=C(C)[C@@H]1CCC(C)=C[C@H]1c1c(O)cc(CCCCC)cc1O [CBD, cannabidiol]",increased solubility of CBD,[3]; in the presence of naked 2HPBCD,2508.7 fold
same,increased solubility of CBD,[3]; in the presence of naked ACD,3066.2 fold
same,increased solubility of CBD,[3]; in the presence of naked GCD,278.7 fold
same,increased solubility of CBD,"[3]; sonication protocol in DI water, no excipient",313.6 fold
same,solubility,"[3]; water with the Excipients of the invention, aqueous with cosolvent or surfactant or cyclodextrin, read-out: water solubility of CBD, enhanced",500 to 15100 µg/mL
same,solubility,"[3]; water, high power sonication, read-out: Water Solubility of CBD",31 µg/mL
same,solubility,"[3]; water, low power sonication, read-out: Water Solubility of CBD",0.4 µg/mL
same,increased solubility of CBD,"[3]; with Run #1 retentate (Example 1), baseline not stated",2717.8 fold
same,increased solubility of CBD,"[3]; with Run #3 retentate (Example 2), baseline not stated",2673.2 fold
same,increased solubility of CBD,"[3]; with Run #4 retentate (Example 3), baseline not stated",4843.2 fold
same,increased solubility of CBD,"[3]; with Run #12 insoluble nanosponge suspension (Example 5), baseline not stated",3797.9 fold
same,increased solubility of CBD,"[3]; with Run #19 retentate (Example 4), baseline not stated",4634.1 fold
same,solution depletion,[1],essentially no solution depletion
same,in vitro dissolution performance,[4],saturation and incomplete dissolution profiles; also recorded: insoluble
same,sustained sleep cycle,"[5]; Subject #1, about 1 mg CBD as CBD-SupraPlex (Run #181) before bedtime",7 to 8 h
same,effects experienced within 15-30 min after ingestion,"[5]; Subject #1, experienced consumer","tingling in fingers, heightened focus, higher energy, relaxed feeling, reduced anxiety, some thirst noted"
same,effects experienced within 15-30 min after ingestion,"[5]; Subject #2, naïve non consumer","peaceful, relaxed, reduced anxiety, remained alert/coordinated, enhanced talking, laughing, higher energy movement, then some drowsiness after 1 hr."
same,CBD in water alone,[6]; literature value,0.0000627 mg/mL
same,Water Solubility of CBD,[6]; no sonication,0.0627 µg/mL
same,μg-CBD,[7],31.36 µg
Oc1ccc(C=Cc2cc(O)cc(O)c2)cc1 [resveratrol],solubility,[8],5010 to 30600 µg/mL
same,solution depletion,[1],essentially no solution depletion
same,in vitro dissolution performance,[4],saturation and incomplete dissolution profiles
same,naked resveratrol solubility in DI water,[9],0.04 µg/mL
